# Measured values reported in patent US8569298B2, “Pyridine compounds” (Astrazeneca AB, priority 2008, dated 2013).
# Target: T1, FAK enzyme (6 His tagged kinase domain, GenBank NP—722560) (Homo sapiens, UniProt Q05397)
# T1 construct: 6 His; made in house; host or cells: insect cell culture infected with baculovirus
# Experiment: In vitro enzyme assay (a): sandwich ELISA of FAK tyrosine kinase activity on polyGAT peptide, TMB colorimetric endpoint
# Type: biochemical
# Conditions: in vitro Enzyme Assay test (a); ATP at Km; geometric mean of n > 1 measurements, values marked * tested once
# Procedure: (a) In Vitro Enzyme Assay
# A sandwich ELISA assay with a 3,3′,5,5′-tetramethyl benzidine (TMB) colorimetric endpoint was used in order to determine the level of effect of selected compounds on inhibition of FAK protein tyrosine kinase enzyme activity. A synthetic tyrosine containing peptide is coated onto a plastic surface, the level of phosphorylation of these tyrosine residues by the kinase enzyme in the presence of inhibitors is measured using an antibody that binds specifically to phosphorylated tyrosine residues. The amount of antibody bound to substrate is proportional to the level of enzyme catalysis.
# Assay Protocol to Identify Inhibitors of Focal Adhesion Kinase (FAK).
# A PlateMate Plus™ 384 automated liquid handling unit with a 100 μl disposable tip head was used to make all the non compound reagent additions and a Tecan 384PW plate washer with 384 head was used for all wash steps. Initially Matrix 384 well polystyrene plates (Cat #:4311) were coated with 40 μl/well of a 0.0375 mg/ml solution of synthetic poly peptide (polyGAT, Sigma Cat #:P3899) dissolved in phosphate buffered saline (PBS). Plates were stored overnight at 4° C. Immediately before use the coating solution was aspirated out and each well washed with 2×100 μl of PBS+0.05% Tween 20. To remove surplus phosphate, the wells were then washed with 2×100 μl 50 mM HEPES buffer pH 7.4. Plates were blotted dry before the addition of compounds. Compounds were tested over a 12 point dose range, a Labcyte Echo 550 was used to dispense compounds in nl volumes and back fill with DMSO. The final concentration of compound in the assay was dependent on the starting concentration of compound. For a 10 mM stock compound the final assay dose ranged from 100 μM down to […]. Control wells containing 120 nl DMSO (Max) or 120 nl of 10 mM staurosporine (LC Laboratories, Boston, USA Cat #: S-9300) (Min) were included in each plate. 10 ul of 5% dimethyl sulfoxide v/v (DMSO, Fisher Scientific) was added to each well immediately prior to addition of 10 μl of a co-factor solution containing 80 mM MgCl2 (Sigma Cat #: M1028); 80 mM MnCl2 (Sigma Cat #: M1787); ATP at a concentration calculated to enable the initial reaction velocity to progress at half the maximum velocity (Km for ATP) (Sigma Cat #:A7699). A final addition of 20 μl of enzyme solution containing 100 mM HEPES pH7.4; 0.2 mM sodium vanadate (Sigma Cat #:S6508); 0.2 g/l bovine serum albumin (BSA, Sigma Cat #: A7888); 0.2 mM dithioreitol (Sigma Cat #: 5545); 0.1% Triton X100 (Sigma Cat #:X100); FAK enzyme (20 μl/ml) was made to each well to start the assay running FAK enzyme was generated from an insect culture infected with baculo virus containing the DNA sequence encoding the 6 His tagged kinase domain (GenBank NP_722560).
# Plates were left at room temperature for 25 minutes before 10 μl of 500 mM ethylenediaminetetraacetic acid (EDTA) was added to stop the assay and the wells were immediately washed 3×100 μl with PBS+0.05% Tween 20. A 4G10 antibody (Millipore Cat #: 16-105; 16-184) with a directly conjugated horse radish peroxidase (HRP) was used to detect the phosphorylation of the substrate by the FAK. 40 μl of PBS+0.05% Tween 20 containing 0.5% BSA and 0.1 μl/ml antibody was added to each well and left for 1 hour at room temperature to allow the antibody to bind. After this period the wells were again washed with 3×100 μl of PBS+0.05% Tween 20. TMB (Sigma Cat #: T2885) was used as a substrate for the HRP. Phosphate-citrate buffer was made up using capsules provided by Sigma (Cat #: P4922) following the manufacturers guidelines. TMB was dissolved at a concentration of 1 mg/ml in DMSO and let down to a final concentration of 0.05 mg/ml with the phosphor-citrate buffer. 40 μl of the TMB solution was added to each assay well and left for 30 minutes for the blue colour to develop. […]
# T1 sequence (Q05397 422-680 limits assumed): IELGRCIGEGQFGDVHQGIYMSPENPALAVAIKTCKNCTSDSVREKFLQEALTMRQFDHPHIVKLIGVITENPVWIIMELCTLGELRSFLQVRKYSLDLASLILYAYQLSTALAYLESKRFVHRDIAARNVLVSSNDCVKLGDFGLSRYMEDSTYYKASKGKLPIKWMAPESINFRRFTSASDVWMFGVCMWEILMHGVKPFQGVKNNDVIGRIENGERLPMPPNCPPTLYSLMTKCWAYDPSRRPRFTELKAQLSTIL
row,IC50 [nM],Structure (SMILES)
1,2,"CONC(=O)c1ccccc1Nc1cc(Nc2cc(C)nn2C)ncc1C(F)(F)F [Example 14.02, 2-[[2-[(2,5-dimethylpyrazol-3-yl)amino]-5-(trifluoromethyl)-4-pyridyl]amino]-N-methoxy-benzamide]"
2,13,"Cc1nn(C(C)C)cc1Nc1cc(Nc2cccc3c2C(=O)N(C)CC3)c(Cl)cn1 [Example 13.01, 8-[[5-chloro-2-[(1-isopropyl-3-methyl-pyrazol-4-yl)amino]-4-pyridyl]amino]-2-methyl-3,4-dihydroisoquinolin-1-one]"
3,7,"Cc1cc(Nc2cc(Nc3cccc4c3C(=O)N(C)CC4)c(Cl)cn2)n(C)n1 [Example 6.02, 8-[[5-chloro-2-[(2,5-dimethylpyrazol-3-yl)amino]-4-pyridyl]amino]-2-methyl-3,4-dihydroisoquinolin-1-one]"
4,462,"CNC(=O)c1ccc(S(C)(=O)=O)cc1Nc1cc(Nc2cn(C)nc2C)ncc1C(F)(F)F [Example 10.13, 2-[[2-[(1,3-dimethylpyrazol-4-yl)amino]-5-(trifluoromethyl)-4-pyridyl]amino]-N-methyl-4-methylsulfonyl-benzamide]"
5,6,"CNC(=O)c1ccccc1Nc1cc(Nc2cn(CCO)nc2C)ncc1C(F)(F)F [Example 13.06, 2-[[2-[[1-(2-hydroxyethyl)-3-methyl-pyrazol-4-yl]amino]-5-(trifluoromethyl)-4-pyridyl]amino]-N-methyl-benzamide]"
6,13,"CNC(=O)c1ccc(C)cc1Nc1cc(Nc2cn(C)nc2C)ncc1C(F)(F)F [Example 10.02, 2-[[2-[(1,3-Dimethylpyrazol-4-yl)amino]-5-(trifluoromethyl)-4-pyridyl]amino]-N,4-dimethyl-benzamide]"
7,3,"CNC(=O)c1ccccc1Nc1cc(Nc2c[nH]nc2C)ncc1C(F)(F)F [Example 12.09, N-methyl-2-[[2-[(3-methyl-1H-pyrazol-4-yl)amino]-5-(trifluoromethyl)-4-pyridyl]amino]benzamide]"
8,10,"CNC(=O)c1ccccc1Nc1cc(Nc2cn(C)nc2COC)ncc1C(F)(F)F [Example 12.10, 2-[[2-[[3-(methoxymethyl)-1-methyl-pyrazol-4-yl]amino]-5-(trifluoromethyl)-4-pyridyl]amino]-N-methyl-benzamide]"
9,69,"CNC(=O)c1ccccc1Nc1cc(Nc2cnn(CC(C)C)c2)ncc1C(F)(F)F [Example 8.09, 2-[[2-[(1-isobutylpyrazol-4-yl)amino]-5-(trifluoromethyl)-4-pyridyl]amino]-N-methyl-benzamide]"

# The next lines start with the compound.
row,Structure (SMILES),IC50 [nM]
1,"CN1CCc2cccc(Nc3cc(Nc4cnn(CC(=O)N5CCOCC5)c4)ncc3F)c2C1=O [Example 4.25, 8-[[5-fluoro-2-[[1-(2-morpholino-2-oxo-ethyl)pyrazol-4-yl]amino]-4-pyridyl]amino]-2-methyl-3,4-dihydroisoquinolin-1-one]",204
2,"CNC(=O)c1ccccc1Nc1cc(Nc2cn(C)nc2C)ncc1C(F)(F)F [Example 2.02, 2-[[2-[(1,3-dimethylpyrazol-4-yl)amino]-5-(trifluoromethyl)-4-pyridyl]amino]-N-methyl-benzamide]",8
3,"Cc1nn(C)cc1Nc1cc(Nc2ccc(N3CCN(C(C)C)CC3)c3c2C(=O)N(C)C3)c(Cl)cn1 [Example 3.38, 7-[[5-Chloro-2-[(1,3-dimethylpyrazol-4-yl)amino]-4-pyridyl]amino]-4-(4-isopropylpiperazin-1-yl)-2-methyl-isoindolin-1-one]",36
4,"CNC(=O)c1ccccc1Nc1cc(Nc2cnn(CC(=O)N3CCN(C)CC3)c2)ncc1F [Example 4.07, 2-[[5-fluoro-2-[[1-[2-(4-methylpiperazin-1-yl)-2-oxo-ethyl]pyrazol-4-yl]amino]-4-pyridyl]amino]-N-methyl-benzamide]",577
5,"CN1CCc2cccc(Nc3cc(Nc4cnn(C)c4)ncc3F)c2C1=O [Example 4.14, 8-[[5-fluoro-2-[(1-methylpyrazol-4-yl)amino]-4-pyridyl]amino]-2-methyl-3,4-dihydroisoquinolin-1-one]",408
6,"CN(C)CCNC(=O)Cn1cc(Nc2cc(Nc3cccc4c3C(=O)N(C)CC4)c(Cl)cn2)cn1 [Example 3.26, 2-[4-[[5-chloro-4-[(2-methyl-1-oxo-3,4-dihydroisoquinolin-8-yl)amino]-2-pyridyl]amino]pyrazol-1-yl]-N-(2-dimethylaminoethyl)acetamide]",38
7,"CNC(=O)c1ccccc1Nc1cc(Nc2cnn(C3CCN(C)CC3)c2)ncc1Cl [Example 3.12, 2-[[5-chloro-2-[[1-(1-methyl-4-piperidyl)pyrazol-4-yl]amino]-4-pyridyl]amino]-N-methyl-benzamide]",195
8,"CN(C)CCNC(=O)Cn1cc(Nc2cc(Nc3cccc4c3C(=O)N(C)CC4)c(F)cn2)cn1 [Example 4.22, N-(2-dimethylaminoethyl)-2-[4-[[5-fluoro-4-[(2-methyl-1-oxo-3,4-dihydroisoquinolin-8-yl)amino]-2-pyridyl]amino]pyrazol-1-yl]acetamide]",364
9,"Cc1nn(C)cc1Nc1cc(Nc2ccc(N3CCN(C(C)C)CC3)c3c2C(=O)N(C)C3)c(F)cn1 [Example 4.28, 7-[[2-[(1,3-Dimethylpyrazol-4-yl)amino]-5-fluoro-4-pyridyl]amino]-4-(4-isopropylpiperazin-1-yl)-2-methyl-isoindolin-1-one]",1120
10,"CN1CCc2cccc(Nc3cc(Nc4cnn(C5CCNCC5)c4)ncc3F)c2C1=O [Example 4.17, 8-[[5-Fluoro-2-[[1-(4-piperidyl)pyrazol-4-yl]amino]-4-pyridyl]amino]-2-methyl-3,4-dihydroisoquinolin-1-one]",189
11,"CNC(=O)c1ccccc1Nc1cc(Nc2cc(C)[nH]n2)ncc1Cl [Example 3.16, 2-[[5-Chloro-2-[(5-methyl-1H-pyrazol-3-yl)amino]pyridin-4-yl]amino]-N-methylbenzamide]",93
12,"COCCNC(=O)Cn1cc(Nc2cc(Nc3cccc4c3C(=O)N(C)CC4)c(F)cn2)cn1 [Example 4.23, 2-[4-[[5-fluoro-4-[(2-methyl-1-oxo-3,4-dihydroisoquinolin-8-yl)amino]-2-pyridyl]amino]pyrazol-1-yl]-N-(2-methoxyethyl)acetamide]",449
13,"CNC(=O)c1ccccc1Nc1cc(Nc2cnn(C)c2)ncc1Cl [Example 3.11, 2-[[5-chloro-2-[(1-methylpyrazol-4-yl)amino]-4-pyridyl]amino]-N-methyl-benzamide]",439
14,"CN1CCc2cccc(Nc3cc(Nc4cnn(CC(=O)N5CCCC5)c4)ncc3F)c2C1=O [Example 4.20, 8-[[5-Fluoro-2-[[1-(2-oxo-2-pyrrolidin-1-yl-ethyl)pyrazol-4-yl]amino]-4-pyridyl]amino]-2-methyl-3,4-dihydroisoquinolin-1-one]",304
15,"CN1CCc2cccc(Nc3cc(Nc4ccnn4C)ncc3Cl)c2C1=O [Example 6.01, 8-[[5-chloro-2-[(2-methylpyrazol-3-yl)amino]-4-pyridyl]amino]-2-methyl-3,4-dihydroisoquinolin-1-one]",6
16,"Cc1nn(C)cc1Nc1cc(Nc2cccc3c2C(=O)N(C)C3)c(Cl)cn1 [Example 3.35, 7-[[5-Chloro-2-[(1,3-dimethylpyrazol-4-yl)amino]-4-pyridyl]amino]-2-methyl-isoindolin-1-one]",36
